From paper PMC10386950 (Clinical Pharmacokinetics, 2023) come the findings set out here.

The test system of this data set is UDP-glucuronosyltransferases (UGTs). In words: Metabolic ratio. The data set is classed as in vivo, human. Particulars: Child C patients.

With `OCc1ncc2n1-c1ccc(Cl)cc1C(c1ccccc1F)=NC2` [1′-Hydroxymidazolam], the “Decrease of the MR for glucuronide formation” value is “approximately 80%”.
